Columns and labels:
[1] = tested on: Plasmodium falciparum; experiment: NOVARTIS: Inhibition of Plasmodium falciparum 3D7 (drug-susceptible) proliferation in erythrocyte-based infection assay; assay type: functional, organism-based; details: Plasmodium falciparum, 3D7
[2] = tested on: Plasmodium falciparum; experiment: NOVARTIS: Inhibition of Plasmodium falciparum W2 (drug-resistant) proliferation in erythrocyte-based infection assay; assay type: functional, organism-based; details: Plasmodium falciparum, W2; read-out: EC50
[3] = NOVARTIS: Cytotoxicity against human hepatocellular carcinoma cell line (Huh7); assay type: toxicity, cell-based, Huh-7; details: Huh7 cells (hepatocellular carcinoma cell line)

| SMILES | EC50 [1] [µM] | EC50 [2] [µM] | CC50 [3] [µM] |
| --- | --- | --- | --- |
| C[N+]1(CCOC(=O)CCC(=O)OCC[N+]2(C)CCCCCC2)CCCCCC1 | > 0.479 | > 1.25 | > 10 |
| Cc1cccc[n+]1CCCCCCCCCC[n+]1ccccc1C | 0.102 | 0.0818 | > 100 |
| CCN(C(=O)CSc1nc(-c2ccc(C(C)C)cc2)no1)c1cccc(C)c1 | 0.356 | 0.183 | > 100 |
| COc1cc(NC(C)=C2C(=O)c3ccccc3C2=O)c(OC)cc1Cl | 2.4 | 1.04 | > 100 |
| CC1=[N+](CC(=O)c2ccc(C)cc2)CCn2c(C)ccc21 | 1.05 | 1.66 | > 100 |
| COc1ccccc1NC(=S)N1CCN(c2ccc([N+](=O)[O-])cc2)CC1 | 0.577 | 0.113 | > 100 |
| O=C(NCCCN1CCCC1=O)c1cnc(N2CCN(Cc3ccccc3)CC2)nc1NCCc1ccccc1 | 0.572 | 0.699 | > 10 |
| Nc1nnc(SCC(=O)Nc2nnc(SCC(=O)Nc3nccs3)s2)s1 | > 1.25 | > 0.738 | > 10 |
| COc1ccc2ccc(OC)c(C3C(C#N)=C(N)OC4=C3C(=O)CC(C)(C)C4)c2c1 (configuration not stated) | 1.45 | 0.864 | > 100 |
| COc1ccccc1Nc1nc(NCc2ccccc2)c2ccccc2n1 | 0.312 | 0.212 | 19.6 |
| FC(F)(F)c1ccccc1CN1CCc2nc(N3CCCCC3)sc2C1 | 0.253 | 0.228 | > 10 |
| Oc1ccc(-c2ccc(F)cc2)cc1CN1CCCCCC1 | 0.111 | 0.0196 | > 100 |
| CC(C)c1ccc2c(c1)c1c3c([n+](C)ccn32)CCC1 | 1.72 | 2.63 | 31.8 |
| COc1cncc(-c2cncc(N3CCN(CCN(C)C)CC3)n2)c1 | 0.261 | 0.695 | > 10 |
| O=C1Cc2ccccc2C(=C2CCNCC2)c2ccsc21 | 0.532 | 2.04 | > 10 |
| CCC(CC)C(=O)N1CCOc2c(cc(-c3csc4ccccc34)cc2OCc2ccccn2)C1 | 1.11 | 1.01 | > 10 |
| Nc1nc(N)nc(C(c2ccccc2)c2ccccc2)n1 | 1.09 | > 1.25 | > 13.2 |

| SMILES | EC50 [1] [µM] | EC50 [2] [µM] | CC50 [3] [µM] |
| --- | --- | --- | --- |
| CC(C)(C)OC(=O)N1CCC(c2c(C(=O)Nc3cccc(C(F)(F)F)c3)cnn2-c2ccc(F)cc2F)CC1 | 1.27 | 0.99 | > 100 |
| Cc1ncc(CN2CCC(C(=O)Nc3ccc(-c4nc5ccccc5o4)cc3)CC2)s1 | 0.74 | 0.721 | > 100 |
| COc1ccc(CC2NCC(O)C2OC(C)=O)cc1 (configuration not stated) | 0.0369 | 0.0485 | 8.11 |
| COc1ccc([N+](=O)[O-])cc1-c1ccc(C=C(C#N)c2nn(CCO)c(N)c2C#N)o1 | > 12.5 | 2.29 | > 100 |
| COc1cc(CN(C)c2ccc3nc(N)nc(N)c3c2)cc(OC)c1OC | 0.00731 | 1.19 | > 10 |
| CCOC(=O)C1=C(N)OC2=C(C(=O)CC(c3ccccc3)C2)C1c1ccc(Cl)cc1Cl (configuration not stated) | > 1.25 | > 0.6 | > 10 |
| O=C(O)c1ccc2c(c1)N=C(c1ccccc1)N(Cc1cccnc1)C2 | 0.476 | 0.0657 | > 10 |
| CCN(CC)CCNc1ccc(Nc2ccnc3cc4ccccc4cc23)cc1 | 0.0282 | 0.0417 | 2.36 |
| Cc1cc(C)n(N=Cc2ccc(Cl)cc2)c(=O)c1C#N | 1.07 | 0.183 | > 100 |
| CCCCCCCC(=O)N(C)CCCNc1ccnc2cc(Cl)ccc12 | 0.242 | < 0.00587 | > 9.69 |
| Cc1ccc(S(=O)(=O)Nn2c(SCC(=O)NCCc3ccc(S(N)(=O)=O)cc3)nc3ccccc3c2=O)cc1 | > 12.5 | 2.49 | > 100 |
| Cc1ccc(OCCCCCCNCCO)c(C)c1 | 1.97 | 0.391 | 20.4 |
| COc1cccc(C(=O)N(C)CCCNc2ccnc3cc(Cl)ccc23)c1 | 0.39 | 0.208 | 5.93 |
| CCOc1ccc(C(=O)C[N+]2=C(CC)c3ccc(C)n3CC2)cc1 | 2.44 | 2.19 | 81 |
| Cc1ccc(NC(=O)ON=C2CCCC2)cc1 | 0.408 | 0.362 | 45.7 |
| Cc1cc(C)n(-c2ccc(NC(=O)C3CCN(Cc4cc(C)c(C)o4)CC3)cc2)n1 | 0.888 | > 1.25 | > 10 |
| CC(=O)N1CCN(c2ccc(NC(=S)NC(=O)c3ccc(C)cc3)cc2)CC1 | > 12.5 | 3.79 | > 95.7 |
